Assay results reported in patent publication US20250320227A1, “MACROCYCLIC OREXIN RECEPTOR AGONISTS AND USES THEREOF” (Jazz Pharmaceuticals Ireland Limited, priority 2022, published 2025).
pEC50: −log10 of the molar value.

molecular target: T1, human recombinant OX2 (hOX2) receptors expressed in CHO cells (Homo sapiens, UniProt O43614); assay: IP-1 accumulation assay (IP-One HTRF) in hOX2-CHO cells; assay type: cell-based; conditions: 60 min incubation at 37° C., mean of at least two independent experiments, read-out: EC50_OX2R Category
T1 construct: host or cells: CHO cells (hOX2-CHO)
T1 sequence (O43614 1-444): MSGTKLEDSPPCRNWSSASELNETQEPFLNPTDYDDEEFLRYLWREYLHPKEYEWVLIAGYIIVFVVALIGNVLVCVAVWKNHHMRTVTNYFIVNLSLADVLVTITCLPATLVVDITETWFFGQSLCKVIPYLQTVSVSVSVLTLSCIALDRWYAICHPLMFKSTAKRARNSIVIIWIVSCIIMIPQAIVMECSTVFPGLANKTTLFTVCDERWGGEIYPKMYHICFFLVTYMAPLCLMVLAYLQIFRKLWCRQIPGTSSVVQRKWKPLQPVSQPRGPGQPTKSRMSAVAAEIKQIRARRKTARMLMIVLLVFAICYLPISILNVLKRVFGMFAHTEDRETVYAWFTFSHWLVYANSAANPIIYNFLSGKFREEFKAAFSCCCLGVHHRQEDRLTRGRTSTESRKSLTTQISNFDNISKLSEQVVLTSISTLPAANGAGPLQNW
How it was run: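 IP-1 HTRF (665/615 ratio) after 60 min compound exposure at 37 °C, 11-point dilution, 0.5% DMSO, LiCl-containing HEPES-buffered HBSS pH 7.4. Response expressed as percent of maximal OX-A effect; EC50 by four-parameter logistic fit, averaged over at least two independent experiments in duplicate.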

Row | SMILES | pEC50
1 | O=C1COC[C@]2(CCCN3C(=O)OCCOc4cccc(c4)[C@H]4CC[C@H](CC4)OC[C@@H]32)N1 (single isomer, unassigned) [Example 53b] | < 5.00
2 | O=C1COC[C@@]2(CCCN3C(=O)OCCCOc4cccc(c4)[C@H]4CC[C@H](CC4)OC[C@H]32)N1 (single isomer, unassigned) [Example 54a] | > 7.00
3 | O=C1COC[C@]2(CCCN3C(=O)OCCCOc4cccc(c4)[C@H]4CC[C@H](CC4)OC[C@@H]32)N1 (single isomer, unassigned) [Example 54b] | 5.00 to 6.00
4 | O=C1N[C@]2(CCCN3C(=O)COc4ccccc4[C@H]4CC[C@H](CC4)OC[C@H]32)COC1F (single isomer, unassigned) [Example 56a] | > 7.00
5 | O=C1N[C@@]2(CCCN3C(=O)COc4ccccc4[C@H]4CC[C@H](CC4)OC[C@@H]32)COC1F (single isomer, unassigned) [Example 56b] | > 7.00
6 | O=C1CCC[C@@]2(CCCN3C(=O)COc4ccccc4[C@H]4CC[C@H](CC4)OC[C@H]32)N1 (single isomer, unassigned) [Example 58a] | > 7.00
7 | O=C1CCC[C@]2(CCCN3C(=O)COc4ccccc4[C@H]4CC[C@H](CC4)OC[C@@H]32)N1 (single isomer, unassigned) [Example 58b] | < 5.00
8 | O=C1COc2ccccc2[C@H]2CC[C@H](CC2)OC[C@@H]2N1CCC[C@@]21CCCS(=O)(=O)N1 (single isomer, unassigned) [Example 59a] | > 7.00
9 | O=C1COc2ccccc2[C@H]2CC[C@H](CC2)OC[C@H]2N1CCC[C@]21CCCS(=O)(=O)N1 (single isomer, unassigned) [Example 59b] | 5.00 to 6.00
10 | O=C1N[C@]2(CCCN3C(=O)COc4ccccc4[C@H]4CC[C@H](CC4)OC[C@H]32)CO1 (single isomer, unassigned) [Example 67a] | > 7.00
11 | O=C1N[C@@]2(CCCN3C(=O)COc4ccccc4[C@H]4CC[C@H](CC4)OC[C@@H]32)CO1 (single isomer, unassigned) [Example 67b] | < 5.00
12 | CC1CC2(COCC(=O)N2)C2COC3CCC(CC3)c3ccncc3OCCC(=O)N12 (single isomer, unassigned) [Example 74] | > 7.00
13 | CC1CC2(COCC(=O)N2)C2COC3CCC(CC3)c3ccncc3OCCC(=O)N12 (single isomer, unassigned) [Example 75] | < 5.00
14 | CC1COc2ccccc2[C@H]2CC[C@H](CC2)OCC2N(CCC23COCC(=O)N3)C1=O (stereo partly drawn) [Example 5, (1′s,3S,16′R,19′s)-10′-methyl-8′,18′-dioxa-12′-azaspiro[morpholine-3,15-′tetracyclo[17.2.2.0^2,70.0^12,16]tricosane]-2′(7′), 3′,5′-triene-5, 11′-dione] | 6.00 to 7.00
15 | C[C@@H]1C[C@@]2(COCC(=O)N2)[C@@H]2CO[C@H]3CC[C@H](CC3)c3ccccc3OCC(=O)N12 [Example 12a, (1′s,3S,12′R,15′R,18′s)-12′-methyl-8′,17′-dioxa-11′-azaspiro[morpholine-3,14′-tetracyclo[16.2.2.0^2,70.0^11,15]docosane]-2′(7′),3′,5′-triene-5,10′-dione] | > 7.00
16 | C[C@@H]1C[C@]2(COCC(=O)N2)[C@H]2CO[C@H]3CC[C@H](CC3)c3ccccc3OCC(=O)N12 [Example 12b, (1′s,3R,12′R,15′S, 18′s)-12′-methyl-8′,17′-dioxa-11′-azaspiro[morpholine-3,14′-tetracyclo[16.2.2.0^2,70.0^11,15]docosane]-2′(7′),3′,5′-triene-5,10′-dione] | 6.00 to 7.00
17 | C[C@@H]1C[C@]2(COCC(=O)N2)[C@H]2CO[C@H]3CC[C@H](CC3)c3ccc(F)cc3OCC(=O)N12 [Example 19b, (1′s,3R,12′R,15′S, 18′s)-5′-fluoro-12′-methyl-8′,17′-dioxa-11′-azaspiro[morpholine-3,14′-tetracyclo [16.2.2.0^2,^7.0^11,^15]docosane]-2′,4′,6′-triene-5,10′-dione] | < 5.00
18 | C[C@@H]1C[C@@]2(COCC(=O)N2)[C@@H]2CO[C@H]3CC[C@H](CC3)c3cc(F)cc(F)c3OCCC(=O)N12 [Example 25a, (1′s,3S,13′R,16′R, 19′s)-4′,6′-difluoro-13′-methyl-8′,18′-dioxa-12′-azaspiro[morpholine-3,15′-tetracyclo[17.2.2. 0^2,^7.0^12,^16]tricosane]-2′,4′,6′-triene-5,11′-dione] | > 7.00
19 | C[C@@H]1C[C@]2(COCC(=O)N2)[C@H]2CO[C@H]3CC[C@H](CC3)c3cc(F)cc(F)c3OCCC(=O)N12 [Example 25b, (1′s,3R,13′R,16′S, 19′s)-4′,6′-difluoro-13′-methyl-8′,18′-dioxa-12′-azaspiro[morpholine-3,15′-tetracyclo[17.2.2. 0^2,^7.0^12,^16]tricosane]-2′,4′,6′-triene-5,11′-dione] | > 7.00
20 | O=C1COCC2(CCCN3C(=O)COc4ccccc4[C@H]4CC[C@H](CC4)OCC32)N1 (stereo partly drawn) [Example 32, Rel-(1′s,3S,16′R,19′s)-8′,18′-dioxa-11′-azaspiro[morpholine-3, 15′-tetracyclo-[17.2.2.0^2,70.0^11,16]tricosane]-2′(7′),3′,5′-triene-5,10′-dione] | > 7.00
21 | O=C1COCC2(CCCN3C(=O)CCOc4ccccc4[C@H]4CC[C@H](CC4)OCC32)N1 (stereo partly drawn) [Example 33, Rel-(1′s,3S,17′R,20's)-8′,19′-dioxa-12′-azaspiro[morpholine-3,16′-tetracyclo-[18.2.2.0^2,70.0^12,17]tetracosane]-2′(7′),3′,5′-triene-5,11′-dione] | > 7.00
22 | O=C1COCC2(CCCN3C(=O)CCCOc4ccccc4[C@H]4CC[C@H](CC4)OCC32)N1 (stereo partly drawn) [Example 34, Rel-(1′s,3S,18′R,21′s)-8′,20′-dioxa-13′-azaspiro[morpholine-3,17′-tetracyclo[19.2.2.0^2,70.0^13,18]pentacosane]-2′(7′),3′,5′-triene-5,12′-dione] | > 7.00
23 | CC1Oc2ccccc2[C@H]2CC[C@H](CC2)OCC2N(CCCC23COCC(=O)N3)C1=O (stereo partly drawn) [Example 35, Rel-(1′s,3S,16′R,19′s)-9′-methyl-8′,18′-dioxa-11′-azaspiro[morpholine-3, 15′-tetracyclo[17.2.2.0^2,70.0^11,16]tricosane]-2′(7′),3′,5′-triene-5,10′-dione] | > 7.00
24 | CC1(C)Oc2ccccc2[C@H]2CC[C@H](CC2)OCC2N(CCCC23COCC(=O)N3)C1=O (stereo partly drawn) [Example 36, Rel-(1′s,3S,16′R,19′s)-9′,9′-dimethyl-8′,18′-dioxa-11′-azaspiro[morpholine-3,15′-tetracyclo[17.2.2.0^2,70.0^11,16]tricosane]-2′(7′),3′,5′-triene-5,10′-dione] | 6.00 to 7.00

The remaining lines, values ahead:

Row | pEC50 | SMILES
25 | 6.00 to 7.00 | O=C1CS[C@@]2(CCCN3C(=O)COc4ccccc4[C@H]4CC[C@H](CC4)OC[C@H]32)N1 (single isomer, unassigned) [Example 68a]
26 | < 5.00 | O=C1CS[C@]2(CCCN3C(=O)COc4ccccc4[C@H]4CC[C@H](CC4)OC[C@H]32)N1 (single isomer, unassigned) [Example 68b]
27 | 5.00 to 6.00 | O=C1COC[C@]2(CCCN3C(=O)C4(CC4)COc4cccc(F)c4[C@H]4CC[C@H](CC4)OC[C@@H]32)N1 (single isomer, unassigned) [Example 72a, (1′s,16′R,17′S,20′s)-3′-fluorodispiro [cyclopropane-1,10′-[8,19]dioxa-[12]azatetracyclo [18.2.2.0^2,^7.0^12,^17]tetracosane-16′,3″- morpholine]-2′,4′,6′-triene-5″,11′-dione]
28 | > 7.00 | O=C1COC[C@@]2(CCCN3C(=O)C4(CC4)COc4cccc(F)c4[C@H]4CC[C@H](CC4)OC[C@H]32)N1 (single isomer, unassigned) [Example 72b, (1′s,16′S,17′R,20′s)-3′-fluorodispiro[cyclopropane-1,10′-[8,19]dioxa-[12]azatetracyclo [18.2.2.0^2,^7.0^12,^17]tetracosane-16′,3″- morpholine]-2′,4′,6′-triene-5″,11′-dione]
29 | 5.00 to 6.00 | O=C1COC[C@]2(CCN3C(=O)C4(CC4)COc4cccc(F)c4[C@H]4CC[C@H](CC4)OC[C@@H]32)N1 (single isomer, unassigned) [Example 73a, (1′s,15′R,16′S,19′s)-3′-fluorodispiro [cyclopropane-1,10′-[8,18]dioxa-[12]azatetracyclo[17. 2.2.0^2,^7.0^12,^16]tricosane-15′,3″- morpholine]-2′,4′,6′-triene-5″,11′-dione]
30 | < 5.00 | O=C1COC[C@@]2(CCN3C(=O)C4(CC4)COc4cccc(F)c4[C@H]4CC[C@H](CC4)OC[C@H]32)N1 (single isomer, unassigned) [Example 73b, (1′s,15′S,16′R,19′s)-3′-fluorodispiro [cyclopropane-1,10′-[8,18]dioxa-[12]azatetracyclo [17.2.2.0^2,^7.0^12,^16]tricosane-15′,3″- morpholine]-2′,4′,6′-triene-5″,11′-dione]
31 | < 5.00 | O=C1COC[C@]2(CCCN3C(=O)CCCCOc4cccc(n4)[C@H]4CC[C@H](CC4)OC[C@@H]32)N1 (single isomer, unassigned) [Example 76a]
32 | > 7.00 | O=C1COC[C@@]2(CCCN3C(=O)CCCCOc4cccc(n4)[C@H]4CC[C@H](CC4)OC[C@H]32)N1 (single isomer, unassigned) [Example 76b]
